Measured values published in patent US8513232B2, “Substituted spirocyclic piperidine derivatives as histamine-3 (H3) receptor ligands” (Cephalon, Inc., priority 2008, dated 2013).
Like-named read-outs stand apart in the source and are kept apart here.

Legend:
[1] = molecular target: T1, rat histamine H3 receptor (Rattus norvegicus, UniProt Q9QYN8); experiment: Rat H3 radioligand binding ([3H]-N-alpha-methylhistamine, SPA)
T1 construct: encoding the entire 445-amino-acid rat histamine H3 receptor; expressed in transfected cells; membrane preparation
How it was run: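 Membranes from CHO-A3 cells stably expressing full-length rat H3 receptor (10 μg protein/well) incubated 4 h at room temperature, protected from light, with ~1 nM [3H]-N-alpha-methylhistamine and compound (0.01 nM-30 μM) in 50 mM Tris HCl pH 7.4, 5 mM MgCl2, 0.1% BSA. Binding read by SPA; 10 μM clobenpropit defined non-specific binding.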

human H3 receptor = molecular target: T2, human H3 receptor (Homo sapiens, UniProt Q9Y5N1); experiment: Human H3 radioligand binding ([3H]-N-alpha-methylhistamine, SPA)
T2 construct: expressed in transfected cells
How it was run: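 SPA competition binding on membranes from CHO cells stably expressing human H3 receptor (10 μg protein/well) with ~1 nM [3H]-N-alpha-methylhistamine and compound at 0.01 nM-30 μM. Incubation 4 h at room temperature in 50 mM Tris-HCl pH 7.4, 5 mM MgCl2, 0.1% BSA; non-specific binding defined with 10 μM clobenpropit.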

[2] = Rat H3 binding, Table B, Examples 136-362, read-out: rat H3 binding Ki
[3] = Human H3 binding, Table B, Examples 136-362, read-out: hum H3 binding Ki
[4] = rat H3 binding, Table D, read-out: Rat H3 Ki
[5] = human H3 binding, Table D, read-out: Human H3 Ki
[6] = Table C, rat H3 binding, read-out: Rat H3 Ki
[7] = Table C, human H3 binding, read-out: Human H3 Ki
[8] = Table A, rat H3 binding, read-out: Rat Ki
[9] = Table A, human H3 binding, read-out: Human Ki

T1 sequence (Q9QYN8 whole entry): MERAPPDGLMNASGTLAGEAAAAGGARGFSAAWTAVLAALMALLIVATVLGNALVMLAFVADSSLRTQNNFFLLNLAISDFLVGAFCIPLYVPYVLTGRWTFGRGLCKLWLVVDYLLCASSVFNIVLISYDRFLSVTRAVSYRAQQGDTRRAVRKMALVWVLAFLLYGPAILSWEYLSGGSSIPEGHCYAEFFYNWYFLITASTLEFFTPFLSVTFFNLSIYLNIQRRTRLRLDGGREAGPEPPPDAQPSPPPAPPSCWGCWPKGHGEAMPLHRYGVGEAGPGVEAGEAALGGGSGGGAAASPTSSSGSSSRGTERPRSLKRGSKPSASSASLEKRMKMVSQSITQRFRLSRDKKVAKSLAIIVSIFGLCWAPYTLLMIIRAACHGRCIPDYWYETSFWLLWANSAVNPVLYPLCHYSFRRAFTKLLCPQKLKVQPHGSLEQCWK
T2 sequence (Q9Y5N1 whole entry): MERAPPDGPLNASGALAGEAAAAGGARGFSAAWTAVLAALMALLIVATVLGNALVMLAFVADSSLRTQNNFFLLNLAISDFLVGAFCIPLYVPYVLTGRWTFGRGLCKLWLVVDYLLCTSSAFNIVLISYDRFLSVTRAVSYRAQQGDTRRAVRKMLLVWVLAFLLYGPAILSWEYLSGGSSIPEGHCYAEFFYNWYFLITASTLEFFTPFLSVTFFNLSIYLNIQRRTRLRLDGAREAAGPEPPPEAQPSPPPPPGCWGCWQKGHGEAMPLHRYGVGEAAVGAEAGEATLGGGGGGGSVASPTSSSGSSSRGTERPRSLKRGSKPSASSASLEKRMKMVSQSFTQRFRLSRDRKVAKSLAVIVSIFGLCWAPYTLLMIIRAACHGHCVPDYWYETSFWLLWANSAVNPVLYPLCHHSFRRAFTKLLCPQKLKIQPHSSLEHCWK

| SMILES | melting point [°C] | Ki [1, 4] [nM] | Ki (human H3 receptor; [5]) [nM] | other results |
| --- | --- | --- | --- | --- |
| CNC(=O)c1ccc(-c2ccc3c(c2)COC2(CCN(C4CCC4)CC2)O3)cc1C [Example 205] | 174 to 176.2 | – | – | Ki [1, 2]: < 200 nM; Ki (human H3 receptor; [3]): < 200 nM |
| COCc1noc(COc2ccc3c(c2)CCC2(CCN(C4CCC4)CC2)O3)n1 [Example 672] | 178 to 179 | < 200 | < 200 | – |
| COC(=O)/C=C/c1ccc2c(c1)COC1(CCN(C3CCC3)CC1)O2 [Example 618] | 131 to 133 | < 200 | < 200 | – |
| O=c1ccc(-c2ccc3c(c2)COC2(CCN(C4CCC4)CC2)O3)cn1CC(F)F [Example 555] | 65 to 70 | – | – | Ki ([1]; read-out: Rat H3 kI): < 200 nM; Ki (human H3 receptor; read-out: Human H3 Ki): < 200 nM |
| O=C(C1CCCN(c2ccc3c(c2)CCC2(CCN(C4CCC4)CC2)O3)C1)N1CCCC1 (stereo not drawn) [Example 451] | 305 to 307 | – | – | Ki ([1]; read-out: Rat H3 kI): < 200 nM; Ki (human H3 receptor; read-out: Human H3 Ki): < 200 nM |
| O=C(c1ccco1)N1CCN(c2ccc3c(c2)CCC2(CCN(C4CCC4)CC2)O3)CC1 [Example 387] | 133 to 135 | – | – | Ki [1, 6]: < 200 nM; Ki (human H3 receptor; [7]): < 200 nM |
| COc1ncccc1-c1ccc2c(c1)COC1(CCN(C3CCC3)CC1)O2 [Example 747] | 210 to 212 | < 200 | < 200 | – |
| c1cc(CNc2ccc3c(c2)COC2(CCN(C4CCC4)CC2)O3)ccn1 [Example 247] | 45 to 48 | – | – | Ki [1, 2]: < 200 nM; Ki (human H3 receptor; [3]): < 200 nM |
| Cc1nnc(CCc2ccc3c(c2)COC2(CCN(C4CCC4)CC2)O3)o1 [Example 673] | 87 to 89 | < 200 | < 200 | – |
| CCc1cc(OC)ncc1-c1ccc2c(c1)COC1(CCN(C3CCC3)CC1)O2 [Example 802] | 156 to 160 | < 200 | < 200 | – |
| O=c1[nH]ccc(-c2ccc3c(c2)COC2(CCN(C4CCC4)CC2)O3)c1Cl [Example 666] | 230 to 232 | < 200 | < 200 | – |
| COc1cc(C(=O)Nc2ccc3c(c2)COC2(CCN(C4CCC4)CC2)O3)ccn1 [Example 267] | 175 to 176 | – | – | Ki [1, 2]: < 200 nM; Ki (human H3 receptor; [3]): < 200 nM |
| OC1(c2ccc3c(c2)COC2(CCN(C4CCC4)CC2)O3)CCOCC1 [Example 477] | 157 to 159 | – | – | Ki ([1]; read-out: Rat H3 kI): < 200 nM; Ki (human H3 receptor; read-out: Human H3 Ki): < 200 nM |
| O=C(NC1CCOCC1)c1ccc(-c2ccc3c(c2)COC2(CCN(C4CCC4)CC2)O3)cc1O [Example 705] | 193 to 195 | < 200 | < 200 | – |
| COc1ccc(/C=C/c2ccc3c(c2)COC2(CCN(C4CCC4)CC2)O3)nn1 [Example 510] | 168 to 170 | – | – | Ki ([1]; read-out: Rat H3 kI): < 200 nM; Ki (human H3 receptor; read-out: Human H3 Ki): < 200 nM |
| O=C(Nc1cccc(F)c1)Nc1ccc2c(c1)COC1(CCN(C3CCC3)CC1)O2 [Example 245] | 227 to 228 | – | – | Ki [1, 2]: < 200 nM; Ki (human H3 receptor; [3]): < 200 nM |
| CCOCC1CCN(c2ccc3c(c2)CCC2(CCN(C4CCC4)CC2)O3)CC1 [Example 626] | 101.6 to 103.2 | < 200 | < 200 | – |
| COCCNC(=O)c1ccc(-c2ccc3c(c2)COC2(CCN(C4CCC4)CC2)O3)cc1OC [Example 634] | 50 to 52 | < 200 | < 200 | – |
| c1cc2c(cc1OCC1CCNCC1)CCC1(CCN(C3CCC3)CC1)O2 [Example 592] | 292 to 294 | < 200 | < 200 | – |
| Cc1nnc(C2CCC(c3ccc4c(c3)COC3(CCN(C5CCC5)CC3)O4)CC2)o1 (stereo not drawn) [Example 707] | 62.4 to 64.7 | < 200 | < 200 | – |
| O=C(c1cccc(-c2ccc3c(c2)OC2(CCN(C4CCC4)CC2)OC3)c1)N1CCOCC1 [Example 96] | 61 | – | – | Ki [1, 8]: 200 to 1000 nM; Ki (human H3 receptor; [9]): 200 to 1000 nM |

| SMILES | melting point [°C] | Ki [1, 4] [nM] | Ki (human H3 receptor; [5]) [nM] | other results |
| --- | --- | --- | --- | --- |
| Cc1cnc(C)c(-c2ccc3c(c2)COC2(CCN(C4CCC4)CC2)O3)n1 [Example 752] | 102 to 103 | < 200 | < 200 | – |
| c1cc2c(cc1OCC1CCOC1)CCC1(CCN(C3CCC3)CC1)O2 (stereo not drawn) [Example 463] | 97 to 99 | – | – | Ki ([1]; read-out: Rat H3 kI): < 200 nM; Ki (human H3 receptor; read-out: Human H3 Ki): < 200 nM |
| CC(C)NC(=O)c1ccc(-c2ccc3c(c2)CCC2(CCN(C4CCC4)CC2)O3)cc1F [Example 355] | 131 to 132 | – | – | Ki [1, 2]: < 200 nM; Ki (human H3 receptor; [3]): < 200 nM |
| CCS(=O)(=O)c1ccc(-c2ccc3c(c2)COC2(CCN(C4CCC4)CC2)O3)s1 [Example 661] | 150 to 152 | < 200 | < 200 | – |
| O=C1OCCN1c1ccc2c(c1)CCC1(CCN(C3CCC3)CC1)O2 [Example 119] | 186 to 188 | – | – | Ki [1, 8]: < 200 nM; Ki (human H3 receptor; [9]): < 200 nM |
| O=C(NC1CCOCC1)c1ccc(-c2ccc3c(c2)COC2(CCN(C4CCC4)CC2)O3)cc1Cl [Example 606] | 209 to 211 | < 200 | < 200 | – |
| C(=C\c1ccc2c(c1)CCC1(CCN(C3CCC3)CC1)O2)/c1ccc(OCc2ccccc2)nc1 [Example 537] | 236 to 238 | – | – | Ki ([1]; read-out: Rat H3 kI): > 1000 nM; Ki (human H3 receptor; read-out: Human H3 Ki): 200 to 1000 nM |
| O=C1N(c2ccncc2)CCN1c1ccc2c(c1)COC1(CCN(C3CCC3)CC1)O2 [Example 178] | 185 to 189 | – | – | Ki [1, 2]: < 200 nM; Ki (human H3 receptor; [3]): < 200 nM |
| CN(C(=O)N1CCN(c2ccc3c(c2)COC2(CCN(C4CCC4)CC2)O3)CC1)c1ccccc1 [Example 293] | 107 to 110 | – | – | Ki [1, 2]: < 200 nM; Ki (human H3 receptor; [3]): < 200 nM |
| OC1(c2ccc3c(c2)COC2(CCN(C4CCC4)CC2)O3)CCSCC1 [Example 465] | 174 to 176 | – | – | Ki ([1]; read-out: Rat H3 kI): < 200 nM; Ki (human H3 receptor; read-out: Human H3 Ki): < 200 nM |
| N#Cc1cccc(C(=O)Nc2ccc3c(c2)COC2(CCN(C4CCC4)CC2)O3)c1 [Example 153] | 212 to 215 | – | – | Ki [1, 2]: < 200 nM; Ki (human H3 receptor; [3]): < 200 nM |
| CNC(=O)N1CCN(c2ccc3c(c2)COC2(CCN(C4CCC4)CC2)O3)CC1 [Example 174] | 59 to 62 | – | – | Ki [1, 2]: < 200 nM; Ki (human H3 receptor; [3]): < 200 nM |
| c1cc2c(cc1-c1cn[nH]c1)COC1(CCN(C3CCC3)CC1)O2 [Example 750] | 205 to 207 | < 200 | < 200 | – |
| c1nnc(CCc2ccc3c(c2)COC2(CCN(C4CCC4)CC2)O3)o1 [Example 675] | 83 to 85 | < 200 | < 200 | – |
| O=C(N[C@@H]1CCOC1)c1ccc(-c2ccc3c(c2)CCC2(CCN(C4CCC4)CC2)O3)cc1 [Example 341] | 194 to 195 | – | – | Ki [1, 2]: < 200 nM; Ki (human H3 receptor; [3]): < 200 nM |
| CS(=O)(=O)N1CCN(c2ccc3c(c2)CCC2(CCN(C4CCC4)CC2)O3)CC1 [Example 375] | 240 to 242 | – | – | Ki [1, 6]: < 200 nM; Ki (human H3 receptor; [7]): < 200 nM |
| COc1cc(-c2ccc3c(c2)COC2(CCN(C4CCC4)CC2)O3)ccc1C(=O)N1CCOCC1 [Example 636] | 94 to 96 | < 200 | < 200 | – |
| CN(C)C(=O)c1cn(-c2ccc3c(c2)COC2(CCN(C4CCC4)CC2)O3)c2ccccc12 [Example 83] | 100 to 110 | – | – | Ki [1, 8]: < 200 nM; Ki (human H3 receptor; [9]): < 200 nM |
| Cc1ccc2nc(C)n(-c3ccc4c(c3)COC3(CCN(C5CCC5)CC3)O4)c(=O)c2c1 [Example 792] | 149 to 152 | < 200 | < 200 | – |
| O=C(O)c1ccc(-c2ccc3c(c2)COC2(CCN(C4CCC4)CC2)O3)cc1 [Example 668] | 236 to 237 | < 200 | < 200 | – |
